{"source": "patent US20110262954A1", "about": "“SHUTTLE VECTOR BASED TRANSFORMATION SYSTEM FOR PYROCOCCUS FURIOSUS” (UNIVERSITAT REGENSBURG, priority 2010, published 2011)", "experiment": "stability of simvastatin at incubation temperature (inferred from growth inhibition)", "details": "95° C. compared with 85° C.", "data": [{"molecule": "CCC(C)(C)C(=O)O[C@H]1C[C@@H](C)C=C2C=C[C@H](C)[C@H](CC[C@@H]3C[C@@H](O)CC(=O)O3)[C@H]21", "note": "[simvastatin]", "values": [{"measurement": "stability of simvastatin", "result": "dramatically decreased"}]}]}
